Source: patent US20130116231A1, “TYROSINE KINASE INHIBITORS” (Merck Sharp & Dohme Corp., priority 2010, published 2013)

What follows are compounds tested against T1, human c-Met (Homo sapiens, UniProt P08581) (assay: in vitro kinase assay (homogeneous time-resolved tyrosine kinase assay, METKA)). Conditions: recombinant GST-tagged c-Met cytosolic domain, HTRF, 50 μM MgATP; read-out: Biological Activity (METKA IC50) Activity Code.
T1 construct: Recombinant GST-tagged cytosolic domains of human c-Met; 6xHis; made in house; host or cells: Sf9 or Sf21 insect cells (baculovirus)
T1 sequence (P08581 956-1390 limits assumed): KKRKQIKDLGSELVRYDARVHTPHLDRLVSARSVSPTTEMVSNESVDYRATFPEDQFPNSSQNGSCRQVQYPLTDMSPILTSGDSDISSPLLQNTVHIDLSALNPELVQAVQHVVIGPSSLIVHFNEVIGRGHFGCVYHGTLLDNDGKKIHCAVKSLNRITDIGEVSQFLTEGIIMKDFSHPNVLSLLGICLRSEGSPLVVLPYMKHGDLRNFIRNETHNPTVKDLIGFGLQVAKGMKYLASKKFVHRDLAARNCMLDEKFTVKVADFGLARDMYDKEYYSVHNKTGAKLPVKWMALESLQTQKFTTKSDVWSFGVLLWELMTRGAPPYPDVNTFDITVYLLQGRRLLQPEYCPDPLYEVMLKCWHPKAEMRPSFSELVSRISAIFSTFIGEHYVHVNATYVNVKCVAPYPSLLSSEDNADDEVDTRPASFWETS
Format: biochemical
In short: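 HTRF assay with GST-tagged cytosolic c-Met domain (0.2 nM), 0.5 μM biotinylated peptide, 50 μM MgATP, pH 7.4, 5% DMSO, 80 min at room temperature; Eu-anti-pTyr/SA-APC detection, IC50 by 4-parameter fit. Other kinases identical except enzyme level: mouse c-Met 0.2, Ron 2.5, KDR 8, IGFR 0.24, EGFR 0.24, FGFR 0.14, Mer 16, TrkA 8, Tie2 8 nM.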
`CCOC(=O)Nc1ccc(OCc2nn(-c3cnn(C)c3)ccc2=O)cc1` [Example 122, ethyl (4-{[1-(1-methyl-1H-pyrazol-4-yl)-4-oxo-1,4-dihydropyridazin-3-yl]methoxy}phenyl)carbamate] gave an IC50 of 100 to 1000 nM.
With `COCCOc1cnc2ccc(NCc3nn(-c4cnn(C)c4)ccc3=O)cc2c1` [Example 102, 3-({[3-(2-Methoxyethoxy)quinolin-6-yl]amino}methyl)-1-(1-methyl-1H-pyrazol-4-yl)pyridazin-4(1H)-one] the IC50 was less than 100 nM.
`Cn1cc(-n2ccc(=O)c(COc3ccc4ncc(NC(=O)OC(C)(C)C)cc4c3)n2)cn1` [Example 110, tert-butyl (6-{[1-(1-methyl-1H-pyrazol-4-yl)-4-oxo-1,4-dihydropyridazin-3-yl]methoxy}quinolin-3-yl)carbamate] showed an IC50 of less than 100 nM.
`CCn1cc(-n2ccc(=O)c(COc3ccc4ncc(-c5cnn(CCOC)c5)cc4c3)n2)cn1` [Example 77, 1-(1-ethyl-1H-pyrazol-4-yl)-3-[({3-[1-(2-methoxyethyl)-1H-pyrazol-4-yl]quinolin-6-yl}oxy)methyl]pyridazin-4(1H)-one] showed an IC50 of less than 100 nM.
For `Cn1cc(-c2cnc3ccc(OCc4nn(-c5cnn(C)c5)ccc4=O)cc3c2)cn1` [Example 75], the IC50 was less than 100 nM.
`CNC(=O)c1ccc(OCc2nn(-c3cnn(C)c3)ccc2=O)cc1` [Example 16, N-methyl-4-{[1-(1-methyl-1H-pyrazol-4-yl)-4-oxo-1,4-dihydropyridazin-3-yl]methoxy}benzamide] gave an IC50 of 100 to 1000 nM.
`Cn1cc(-n2ccc(=O)c(COc3ccc4nccc(Cl)c4c3)n2)cn1` [Example 97, 3-{[(4-Chloroquinolin-6-yl)oxy]methyl}-1-(1-methyl-1H-pyrazol-4-yl)pyridazin-4(1H)-one] was tested, and the IC50 was less than 100 nM.
`COCCOc1cnc2ccc(C(C)Oc3nn(-c4cnn(C)c4)ccc3=O)cc2c1` (single isomer, unassigned) [Example 143, 3-{1-[3-(2-methoxyethoxy)quinolin-6-yl]ethoxy}-1-(1-methyl-1H-pyrazol-4-yl)pyridazin-4(1H)-one] gave an IC50 of less than 100 nM.
Compound `Cn1cc(-n2ccc(=O)c(COc3ccc(NCCCCO)cc3)n2)cn1` [Example 116, 3-((4-(4-hydroxybutylamino)phenoxy)methyl)-1-(1-methyl-1H-pyrazol-4-yl)pyridazin-4(1H)-one] has an IC50 of 1000 to 3000 nM.
`COCCOc1cnc2ccc(OCc3nn(-c4cnn(C)c4)ccc3=O)cc2c1` [Example 24, 3-({[3-(2-methoxyethoxy)quinolin-6-yl]oxy}methyl)-1-(1-methyl-1H-pyrazol-4-yl)pyridazin-4(1H)-one] was tested, and the IC50 was less than 100 nM.
`CCn1cc(-n2ccc(=O)c(COc3ccc4ncc(-c5ccc(C#N)nc5)cc4c3)n2)cn1` [Example 81, 5-(6-{[1-(1-ethyl-1H-pyrazol-4-yl)-4-oxo-1,4-dihydropyridazin-3-yl]methoxy}quinolin-3-yl)pyridine-2-carbonitrile] gave an IC50 of less than 100 nM.
For `COc1ccnc2ccc(C(C)Oc3nn(-c4cnn(C)c4)ccc3=O)cc12` (single isomer, unassigned) [Example 145, 3-[1-(4-methoxyquinolin-6-yl)ethoxy]-1-(1-methyl-1H-pyrazol-4-yl)pyridazin-4(1H)-one], the IC50 was less than 100 nM.
`Cn1cc(-n2ccc(=O)c(COc3ccc4ncc(-c5cnn(C6CNC6)c5)cc4c3)n2)cn1` [Example 93, 3-[({3-[1-(Azetidin-3-yl)-1H-pyrazol-4-yl]quinolin-6-yl}oxy)methyl]-1-(1-methyl-1H-pyrazol-4-yl)pyridazin-4(1H)-one] was tested, and the IC50 was less than 100 nM.
In the case of `CCOc1cnc2ccc(OCc3nn(-c4cnn(C)c4)ccc3=O)cc2c1` [Example 23, 3-{[(3-Ethoxyquinolin-6-yl)oxy]methyl}-1-(1-methyl-1H-pyrazol-4-yl)pyridazin-4(1H)-one], the IC50 is reported as less than 100 nM.
`Cn1cc(-n2ccc(=O)c(CCc3ccc4ncccc4c3)n2)cn1` [Example 53, 1-(1-Methyl-1H-pyrazol-4-yl)-3-[2-(quinolin-6-yl)ethyl]pyridazin-4(1H)-one] was tested, and the IC50 was less than 100 nM.
For `O=c1ccn(-c2cccc(Br)c2)nc1COc1ccc2ncccc2c1` [Example 20, 1-(3-Bromophenyl)-3-[(quinolin-6-yloxy)methyl]pyridazin-4(1H)-one], the IC50 was less than 100 nM.
With `COc1cnc2ccc(OCc3nn(-c4cnn(C)c4)ccc3=O)cc2c1` [Example 35, 3-{[(3-methoxyquinolin-6-yl)oxy]methyl}-1-(1-methyl-1H-pyrazol-4-yl)pyridazin-4(1H)-one] the IC50 was less than 100 nM.
With `Cn1cc(-n2ccc(=O)c(COc3ccc4ncc(-c5cnn(C6CCNCC6)c5)cc4c3)n2)cn1` [Example 94, 1-(1-methyl-1H-pyrazol-4-yl)-3-[({3-[1-(piperidin-4-yl)-1H-pyrazol-4-yl]quinolin-6-yl}oxy)methyl]pyridazin-4(1H)-one] the IC50 was less than 100 nM.
`O=c1ccn(-c2cncc(Br)c2)nc1COc1ccc2ncccc2c1` [Example 21, 1-(5-bromopyridin-3-yl)-3-[(quinolin-6-yloxy)methyl] pyridazin-4(1H)-one] gave an IC50 of less than 100 nM.
In the case of `COCCOc1cnc2ccc(SCc3nn(-c4cnn(C)c4)ccc3=O)cc2c1` [Example 99, 3-({[3-(2-Methoxyethoxy)quinolin-6-yl]sulfanyl}methyl)-1-(1-methyl-1H-pyrazol-4-yl)pyridazin-4(1H)-one], the IC50 is reported as less than 100 nM.
Work on `Cn1cc(-n2ccc(=O)c(COc3ccc4ncncc4c3)n2)cn1` [Example 27, 1-(1-methyl-1H-pyrazol-4-yl)-3-[(quinazolin-6-yloxy)methyl]pyridazin-4(1H)-one] yielded an IC50 of 100 to 1000 nM.
Work on `CCn1cc(-n2ccc(=O)c(COc3ccc4ncc(-c5ccc(S(C)(=O)=O)cc5)cc4c3)n2)cn1` [Example 76, 1-(1-Ethyl-1H-pyrazol-4-yl)-3-[({3-[4-(methylsulfonyl)phenyl]quinolin-6-yl}oxy)methyl]pyridazin-4(1H)-one] yielded an IC50 of less than 100 nM.
`Cn1cc(-n2ccc(=O)c(COc3ccc4ncc(-c5cccnc5)cc4c3)n2)cn1` [Example 74, 1-(1-Methyl-1H-pyrazol-4-yl)-3-{[(3-pyridin-3-ylquinolin-6-yl)oxy]methyl}pyridazin-4(1H)-one] gave an IC50 of less than 100 nM.
`Cn1cc(-n2ccc(=O)c(COc3cc(F)c4ncccc4c3)n2)cn1` [Example 32, 3-{[(8-fluoroquinolin-6-yl)oxy]methyl}-1-(1-methyl-1H-pyrazol-4-yl)pyridazin-4(1H)-one] showed an IC50 of 1000 to 3000 nM.
In the case of `N#Cc1ccc(-n2ccc(=O)c(COc3ccc4ncccc4c3)n2)cc1` [Example 5, 4-{4-oxo-3-[(quinolin-6-yloxy)methyl]pyridazin-1(4H)-yl}benzonitrile], the IC50 is reported as less than 100 nM.
In the case of `Cc1cnc2ccc(OCc3nn(-c4cnn(C)c4)ccc3=O)cc2c1` [Example 71, 1-(1-Methyl-1H-pyrazol-4-yl)-3-{[(3-methylquinolin-6-yl)oxy]methyl}pyridazin-4(1H)-one], the IC50 is reported as less than 100 nM.
In the case of `Cn1cc(-n2ccc(=O)c(COc3ccc4ncc(C(=O)N5CCOCC5)cc4c3)n2)cn1` [Example 109, 1-(1-methyl-1H-pyrazol-4-yl)-3-({[3-(morpholin-4-ylcarbonyl)quinolin-6-yl]oxy}methyl)pyridazin-4(1H)-one], the IC50 is reported as 1000 to 3000 nM.
For `CCn1cc(-n2ccc(=O)c(COc3ccc4ncc(OCc5noc(C)n5)cc4c3)n2)cn1` [Example 70, 1-(1-ethyl-1H-pyrazol-4-yl)-3-[({3-[(5-methyl-1,2,4-oxadiazol-3-yl)methoxy]quinolin-6-yl}oxy)methyl]pyridazin-4(1H)-one], the IC50 was less than 100 nM.
